The values that follow come from patent publication US8404643B2, “Metastin derivatives and use thereof” (priority 2005, dated 2013).

Each structure is given as a SMILES string. Square brackets hold non-standard residues; d marks the D form. Peptide text beside a SMILES is read from it. * marks the point of attachment. Phe(4-Cl) = N[C@@H](Cc1ccc(Cl)cc1)C(=O)O; Phe(3-F) = N[C@@H](Cc1cccc(F)c1)C(=O)O; Phe(3-Me) = Cc1cccc(C[C@H](N)C(=O)O)c1; Phe(4-F) = N[C@@H](Cc1ccc(F)cc1)C(=O)O; Desaminotyrosyl = O=C(CCc1ccc(O)cc1)*; Phe(2-F) = N[C@@H](Cc1ccccc1F)C(=O)O; Arg(Me) = CNC(=N)NCCC[C@H](N)C(=O)O; Ala(cPr) = N[C@@H](CC1CC1)C(=O)O; Hyp = O=C(O)[C@@H]1C[C@@H](O)CN1; Cit = NC(=O)NCCC[C@H](N)C(=O)O; Thz = O=C(O)[C@@H]1CSCN1; Aib = CC(C)(N)C(=O)O; azaGly = NNC(=O)O

The assay deals with T1, hOT7T175 (Homo sapiens, UniProt Q969F8).
T1 construct: expressed in transfected cells
T1 sequence (Q969F8 whole entry L364H): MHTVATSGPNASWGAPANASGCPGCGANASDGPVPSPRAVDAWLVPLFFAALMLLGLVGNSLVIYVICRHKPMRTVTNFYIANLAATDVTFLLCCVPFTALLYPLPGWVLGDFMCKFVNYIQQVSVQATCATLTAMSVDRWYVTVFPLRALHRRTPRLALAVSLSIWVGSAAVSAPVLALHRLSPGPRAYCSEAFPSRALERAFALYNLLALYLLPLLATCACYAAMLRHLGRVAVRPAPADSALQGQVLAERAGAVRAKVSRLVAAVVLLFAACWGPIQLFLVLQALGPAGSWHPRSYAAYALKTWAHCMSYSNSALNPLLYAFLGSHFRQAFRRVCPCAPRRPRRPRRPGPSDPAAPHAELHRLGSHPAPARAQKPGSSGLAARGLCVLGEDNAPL
Briefly: Assay for intracellular Ca ion level-increasing activity using FLIPR. The assay is classed as cell-based. As to conditions: hOT7T175/CHO cells, relative to Metastin (1-54). The procedure, abridged:
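CHO/dhfr− cells stably transfected with hOT7T175, selected for high metastin response, loaded with Fluo3-AM for 1 h at 37 °C in HANKS/HBSS (pH 7.4) with probenecid. Peptides were diluted from 1×10^−3 M DMSO stock into HANKS/HBSS with 2.5 mM probenecid, 0.2% BSA, 0.1% CHAPS; intracellular Ca rise read by FLIPR.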

As to `CNC(=N)NCCC[C@H](NC(=O)[C@H](CC(C)C)NC(=O)NNC(=O)[C@H](Cc1cccc(F)c1)NC(=O)[C@@H](NC(=O)[C@H](CC(N)=O)NC(=O)[C@H](CCC(=O)O)NC(=O)[C@@H](Cc1ccc(O)cc1)NC(C)=O)[C@@H](C)O)C(=O)N[C@@H](Cc1c[nH]c2ccccc12)C(N)=O` [Compound No. 757, Ac-D-Tyr-Glu-Asn-Thr-Phe(3F)-AzaGly-Leu-Arg(Me)-Trp-NH2] (Ac-[dY]ENT[Phe(3-F)][azaGly]L[Arg(Me)]W-NH2), the “Specific Activity: intracellular Ca ion level-increasing activity [specific activity to Metastin (1-54)]” value is listed as 2.7. Consider `CNC(=N)NCCC[C@H](NC(=O)[C@H](CC1CC1)NC(=O)NNC(=O)[C@H](Cc1ccccc1)NC(=O)[C@@H](NC(=O)[C@H](CC(N)=O)NC(=O)[C@@H]1C[C@@H](O)CN1C(=O)[C@@H](Cc1ccc(O)cc1)NC(C)=O)[C@@H](C)O)C(=O)N[C@@H](Cc1c[nH]c2ccccc12)C(N)=O` [Compound No. 856, Ac-D-Tyr-Hyp-Asn-Thr-Phe-AzaGly-Ala(cPr)-Arg(Me)-Trp-NH2] (Ac-[dY][Hyp]NTF[azaGly][Ala(cPr)][Arg(Me)]W-NH2), for which the “Specific Activity: intracellular Ca ion level-increasing activity [specific activity to Metastin (1-54)]” value turned out to be 0.6. In the case of `CNC(=N)NCCC[C@H](NC(=O)[C@H](CC(C)C)NC(=O)NNC(=O)[C@H](Cc1ccccc1)NC(=O)[C@@H](NC(=O)[C@H](CCCNC(N)=O)NC(=O)[C@@H]1C[C@@H](O)CN1C(=O)[C@@H](Cc1ccc(O)cc1)NC(C)=O)[C@@H](C)O)C(=O)N[C@@H](Cc1c[nH]c2ccccc12)C(N)=O` [Compound No. 845, Ac-D-Tyr-Hyp-Cit-Thr-Phe-AzaGly-Leu-Arg(Me)-Trp-NH2] (Ac-[dY][Hyp][Cit]TF[azaGly]L[Arg(Me)]W-NH2) it was 1.0; in that of `CNC(=N)NCCC[C@H](NC(=O)[C@H](CC(C)C)NC(=O)NNC(=O)[C@@H](Cc1ccccc1)NC(=O)[C@@H](NC(=O)[C@H](CC(N)=O)NC(=O)[C@@H]1C[C@@H](O)CN1C(=O)[C@@H](Cc1ccc(O)cc1)NC(C)=O)[C@@H](C)O)C(=O)N[C@@H](Cc1c[nH]c2ccccc12)C(N)=O` [Compound No. 794, Ac-D-Tyr-Hyp-Asn-Thr-D-Phe-AzaGly-Leu-Arg(Me)-Trp-NH2] (Ac-[dY][Hyp]NT[dF][azaGly]L[Arg(Me)]W-NH2), 2.3; in that of `CNC(=N)NCCC[C@H](NC(=O)[C@H](CC(C)C)NC(=O)NNC(=O)[C@H](Cc1ccc(Cl)cc1)NC(=O)[C@@H](NC(=O)[C@H](CC(N)=O)NC(=O)C(C)(C)NC(=O)[C@@H](Cc1ccc(O)cc1)NC(C)=O)[C@@H](C)O)C(=O)N[C@@H](Cc1c[nH]c2ccccc12)C(N)=O` [Compound No. 770, Ac-D-Tyr-Aib-Asn-Thr-Phe(4Cl)-AzaGly-Leu-Arg(Me)-Trp-NH2] (Ac-[dY][Aib]NT[Phe(4-Cl)][azaGly]L[Arg(Me)]W-NH2), 2.6. `CNC(=N)NCCC[C@H](NC(=O)[C@H](CC(C)C)NC(=O)NNC(=O)[C@H](Cc1ccc(F)cc1)NC(=O)[C@@H](NC(=O)[C@H](CC(N)=O)NC(=O)CNC(=O)[C@@H](Cc1ccc(O)cc1)NC(C)=O)[C@@H](C)O)C(=O)N[C@@H](Cc1c[nH]c2ccccc12)C(N)=O` [Compound No. 790, Ac-D-Tyr-Gly-Asn-Thr-Phe(4F)-AzaGly-Leu-Arg(Me)-Trp-NH2] (Ac-[dY]GNT[Phe(4-F)][azaGly]L[Arg(Me)]W-NH2): the “Specific Activity: intracellular Ca ion level-increasing activity [specific activity to Metastin (1-54)]” value is 2.3.

For `CNC(=N)NCCC[C@H](NC(=O)[C@H](CC(C)C)NC(=O)NNC(=O)[C@H](Cc1ccccc1F)NC(=O)[C@@H](NC(=O)[C@H](CC(N)=O)NC(=O)[C@H](CCCCN)NC(=O)[C@@H](Cc1ccc(O)cc1)NC(C)=O)[C@@H](C)O)C(=O)N[C@@H](Cc1c[nH]c2ccccc12)C(N)=O` [Compound No. 754, Ac-D-Tyr-Lys-Asn-Thr-Phe(2F)-AzaGly-Leu-Arg(Me)-Trp-NH2] (Ac-[dY]KNT[Phe(2-F)][azaGly]L[Arg(Me)]W-NH2), the “Specific Activity: intracellular Ca ion level-increasing activity [specific activity to Metastin (1-54)]” value was determined as 3.1. As for `CNC(=N)NCCC[C@H](NC(=O)[C@H](CC(C)C)NC(=O)NNC(=O)[C@H](Cc1cccc(C)c1)NC(=O)[C@@H](NC(=O)[C@H](CC(N)=O)NC(=O)[C@@H]1C[C@@H](O)CN1C(=O)[C@@H](Cc1ccc(O)cc1)NC(C)=O)[C@@H](C)O)C(=O)N[C@@H](Cc1c[nH]c2ccccc12)C(N)=O` [Compound No. 872, Ac-D-Tyr-Hyp-Asn-Thr-Phe(3Me)-AzaGly-Leu-Arg(Me)-Trp-NH2] (Ac-[dY][Hyp]NT[Phe(3-Me)][azaGly]L[Arg(Me)]W-NH2), the figure is 0.7; as for `CNC(=N)NCCC[C@H](NC(=O)[C@H](CC(C)C)NC(=O)NNC(=O)[C@H](Cc1ccccc1)NC(=O)[C@@H](NC(=O)[C@H](CC(N)=O)NC(=O)[C@@H]1CSCN1C(=O)[C@@H](Cc1ccc(O)cc1)NC(C)=O)[C@@H](C)O)C(=O)N[C@@H](Cc1c[nH]c2ccccc12)C(N)=O` [Compound No. 724, Ac-D-Tyr-Thz-Asn-Thr-Phe-AzaGly-Leu-Arg(Me)-Trp-NH2] (Ac-[dY][Thz]NTF[azaGly]L[Arg(Me)]W-NH2), 1.4; as for `CNC(=N)NCCC[C@H](NC(=O)[C@H](CC(C)C)NC(=O)NNC(=O)[C@H](Cc1ccccc1)NC(=O)[C@@H](NC(=O)[C@H](CC(N)=O)NC(=O)[C@@H]1C[C@@H](O)CN1C(=O)CCc1ccc(O)cc1)[C@@H](C)O)C(=O)N[C@@H](Cc1c[nH]c2ccccc12)C(N)=O` [Compound No. 888, 3-(p-Hydroxyphenyl)propionyl-Hyp-Asn-Thr-Phe-AzaGly-Leu-Arg(Me)-Trp-NH2] (Desaminotyrosyl-[Hyp]NTF[azaGly]L[Arg(Me)]W-NH2), 1.1.

For the molecule `CNC(=N)NCCC[C@H](NC(=O)[C@H](CC(C)C)NC(=O)NNC(=O)[C@H](Cc1ccccc1F)NC(=O)[C@@H](NC(=O)[C@H](CC(N)=O)NC(=O)[C@@H]1C[C@@H](O)CN1C(=O)[C@@H](Cc1ccc(O)cc1)NC(C)=O)[C@@H](C)O)C(=O)N[C@@H](Cc1c[nH]c2ccccc12)C(N)=O` [Compound No. 763, Ac-D-Tyr-Hyp-Asn-Thr-Phe(2F)-AzaGly-Leu-Arg(Me)-Trp-NH2] (Ac-[dY][Hyp]NT[Phe(2-F)][azaGly]L[Arg(Me)]W-NH2), the “Specific Activity: intracellular Ca ion level-increasing activity [specific activity to Metastin (1-54)]” value came to 6.4. As to `CNC(=N)NCCC[C@H](NC(=O)[C@H](CC(C)C)NC(=O)NNC(=O)[C@H](Cc1ccccc1)NC(=O)[C@@H]1C[C@@H](O)CN1C(=O)[C@H](CC(N)=O)NC(=O)[C@@H]1C[C@@H](O)CN1C(=O)[C@@H](Cc1ccc(O)cc1)NC(C)=O)C(=O)N[C@@H](Cc1c[nH]c2ccccc12)C(N)=O` [Compound No. 810, Ac-D-Tyr-Hyp-Asn-Hyp-Phe-AzaGly-Leu-Arg(Me)-Trp-NH2] (Ac-[dY][Hyp]N[Hyp]F[azaGly]L[Arg(Me)]W-NH2), the “Specific Activity: intracellular Ca ion level-increasing activity [specific activity to Metastin (1-54)]” value stood at 1.5.

As to `CNC(=N)NCCC[C@H](NC(=O)[C@H](CC(C)C)NC(=O)NNC(=O)[C@H](Cc1ccccc1F)NC(=O)[C@@H](NC(=O)[C@H](CC(N)=O)NC(=O)C(C)(C)NC(=O)[C@@H](Cc1ccc(O)cc1)NC(C)=O)[C@@H](C)O)C(=O)N[C@@H](Cc1c[nH]c2ccccc12)C(N)=O` [Compound No. 784, Ac-D-Tyr-Aib-Asn-Thr-Phe(2F)-AzaGly-Leu-Arg(Me)-Trp-NH2] (Ac-[dY][Aib]NT[Phe(2-F)][azaGly]L[Arg(Me)]W-NH2), the “Specific Activity: intracellular Ca ion level-increasing activity [specific activity to Metastin (1-54)]” value is given as 3.4.
